{"source": "paper PMC12108179", "about": "“Porcine β-Defensin 2 Expressed in Pichia pastoris Alleviates Enterotoxigenic Escherichia coli-Induced Intestinal Injury and Inflammatory Response in Mice” (Animals : an Open Access Journal from MDPI, 2025)", "key": {"[1]": {"settings": "in the presence of 150 mM NaCl or 2.5 mM CaCl2; cited from earlier work", "text": "It has been reported that PBD2 has antibacterial activity against Gram-positive and -negative bacteria. […] When AMPs are used in the animal industry, many factors, including temperature, pH, enzymes, and salt ions, may affect their activities. […] This may allow crude rPBD2 to endure the ..."}, "ETEC7 [2]": {"system": "ETEC7", "assay": "ETEC7-infected mouse model: clinical symptoms (body weight, diarrhea score, intestine/carcass ratio, cecum index)", "format": "in vivo, ICR mice", "settings": "9000 U orally for 7 days, n = 6/group", "text": "(§1) The animal experiment was approved by the Animal Ethics and Welfare Committee of Huazhong Agricultural University, Wuhan, China (HZAUMO-2023-0264). The animal model was established as in our previous experiment. Female ICR mice (3–4 weeks old) were obtained from the Laboratory Animals Center of Huazhong Agricultural University. After 5 days of adaptation, 36 mice were randomly assigned into 6 groups (n = 6/group), namely, a control group (only phosphate-buffered saline (PBS) treatment), the ETEC7 group (ETEC7 and PBS treatment), the COL group (ETEC7 and 9000 U colistin sulfate treatment), the HP group (ETEC7 and 16 AU rPBD2 treatment), the MP group (ETEC7 and 8 AU rPBD2 treatment), and the LP group (ETEC7 and 4 AU rPBD2 treatment). The mice were fed antibiotics, including kanamycin (400 mg/L), gentamicin (35 mg/L), vancomycin (45 mg/L), metronidazole (215 mg/L), and colistin (850 U/mL), in drinking water for 72 h and were then fed normal water for another 24 h. All mice were fasted for 12 h and then were orally gavaged with 200 μL 3% NaHCO3 30 min prior to the challenge with 10^9 CFU of ETEC7. The mice were orally infected with ETEC7 once a day for 3 days. […] The control and ETEC7 groups were administrated with the same volume of PBS. All mice were treated with PBS, colistin sulfate, or rPBD2 for 7 continuous days.\n(§2) Body weight change was calculated as ((final body weight − initial body weight)/initial body weight) × 100%. Diarrhea scores were recorded at 1, 3, 5, and 7 days post infection (dpi) based on the following scoring criteria: (1) normal stool: 0 point; (2) color change/consistency: 1 point; (3) presence of wet tail or mucosa: 2 points; (4) watery stool: 3 points. A score of 1 was considered diarrhea. Fresh stools and 1 cm colon were collected and suspended in sterile PBS. Ten-fold serial dilutions of stool or colon homogenate were plated on MacConkey plates containing 100 μg/mL ampicillin. […] Intestine water content (intestine/carcass ratio) was measured as described previously. The cecum index was calculated as cecum weight (g)/body weight (g). […]"}, "E. coli K88": {"system": "E. coli K88", "assay": "ETEC7-infected mouse model: E. coli loads in stool and colon", "format": "in vivo", "settings": "ETEC7-infected ICR mice, COL group, 9000 U orally for 7 days, p < 0.05, n = 6/group", "text": "The animal experiment was approved by the Animal Ethics and Welfare Committee of Huazhong Agricultural University, Wuhan, China (HZAUMO-2023-0264). The animal model was established as in our previous experiment. Female ICR mice (3–4 weeks old) were obtained from the Laboratory Animals Center of Huazhong Agricultural University. After 5 days of adaptation, 36 mice were randomly assigned into 6 groups (n = 6/group), namely, a control group (only phosphate-buffered saline (PBS) treatment), the ETEC7 group (ETEC7 and PBS treatment), the COL group (ETEC7 and 9000 U colistin sulfate treatment), the HP group (ETEC7 and 16 AU rPBD2 treatment), the MP group (ETEC7 and 8 AU rPBD2 treatment), and the LP group (ETEC7 and 4 AU rPBD2 treatment). […]\nas §2, with “points.” for “points. A score of 1 was considered diarrhea. Fresh stools and 1 cm colon were collected and suspended in sterile PBS. Ten-fold serial dilutions of stool or colon homogenate were plated on MacConkey plates containing 100 μg/mL ampicillin.”"}, "ETEC7 [3]": {"system": "ETEC7", "assay": "ETEC7-infected mouse model: ileum morphology (HE staining)", "format": "in vivo", "settings": "ETEC7-infected ICR mice, 7 dpi, n = 6/group", "text": "as §1, §2"}, "IL-10": {"system": "IL-10", "assay": "ETEC7-infected mouse model: serum cytokine ELISA", "format": "in vivo", "settings": "ETEC7-infected ICR mice, 9000 U orally for 7 days, 7 dpi, among the groups, p > 0.05, n = 6/group", "text": "as §1, §2"}, "IL-6": {"system": "IL-6", "assay": "ETEC7-infected mouse model: serum cytokine ELISA", "format": "in vivo", "settings": "ETEC7-infected ICR mice, 9000 U (COL group) orally for 7 days, 7 dpi, p < 0.05, n = 6/group", "text": "as §1, §2"}, "TNF-α": {"system": "TNF-α", "assay": "ETEC7-infected mouse model: serum cytokine ELISA", "format": "in vivo", "settings": "ETEC7-infected ICR mice, 9000 U (COL group) orally for 7 days, 7 dpi, p < 0.05, n = 6/group", "text": "as §1, §2"}, "[4]": {"settings": "9000 U (COL group) orally for 7 days, p < 0.05"}}, "note": "Where no end group is shown, it is not given here.", "data": [{"substance": "synthetic human β-defensin 3 (hBD-3): synthetic human β-defensin 3, literature comparison (GIINTLQKYYCRVRGGRCAVLSCLPKEEQIGKCSTRGRKCCRRKK; ends and bridges not checked; cysteine pairing not given here; UniProt P81534 23-67, looked up)", "values": [{"measurement": "antibacterial activity in the presence of salts", "setting": "[1]", "value": "completely abolished"}]}, {"substance": "colistin sulfate", "values": [{"measurement": "diarrhea scores", "setting": "ETEC7 [2]; ETEC7-infected ICR mice, 1, 3, 5, 7 dpi, vs ETEC7 group", "value": "relative lower diarrhea scores but without significant differences"}, {"measurement": "cecum index", "setting": "ETEC7 [2]; ETEC7-infected ICR mice, 7 dpi, among the groups", "value": "no significant differences"}, {"measurement": "final body weight", "setting": "ETEC7 [2]; female ICR mice, ETEC7 10^9 CFU orally once a day for 3 days, 7 dpi, among groups, p > 0.05", "value": "no significant differences"}, {"measurement": "colonized numbers of E. coli K88 in the colon", "setting": "E. coli K88; 7 dpi", "value": "lower than those in the ETEC7 group"}, {"measurement": "bacterial loads in feces", "setting": "E. coli K88; vs ETEC7 group", "value": "significantly decreased"}, {"measurement": "VH/CD (villus height/crypt depth, ileum)", "setting": "ETEC7 [3]; [4]", "value": "significantly increase"}, {"measurement": "villus height (ileum)", "setting": "ETEC7 [3]; [4]", "value": "significantly increase"}, {"measurement": "crypt depth (ileum)", "setting": "ETEC7 [3]; 9000 U orally for 7 days, among the groups, p > 0.05", "value": "no significant differences"}, {"measurement": "serum IL-10 levels", "setting": "IL-10", "value": "no significant differences"}, {"measurement": "serum IL-6 levels", "setting": "IL-6", "value": "could decrease the levels of IL-6"}, {"measurement": "serum TNF-α levels", "setting": "TNF-α", "value": "significantly decrease"}]}]}
